Experimental findings from patent US20260022142A1, “MACROCYCLIC IMMUNOMODULATORS” (Bristol-Myers Squibb Company, priority 2022, published 2026) are described below.

In general, IC50 refers to the concentration needed to halve the response being measured.

Bridge positions count the residues as written; N and C are the ends. Square brackets hold non-standard residues; d marks the D form. Peptide text beside a SMILES is read from it. * marks the point of attachment. ξ: configuration not given here. Phe(3-CF3) = N[C@@H](Cc1cccc(C(F)(F)F)c1)C(=O)O; Phe(4-COOH) = N[C@@H](Cc1ccc(C(=O)O)cc1)C(=O)O; Bip = N[C@@H](Cc1ccc(-c2ccccc2)cc1)C(=O)O; NH(CH2)14COOH = O=C(O)CCCCCCCCCCCCCCN*; Phe(3-Me) = Cc1cccc(C[C@H](N)C(=O)O)c1; Phe(4-F) = N[C@@H](Cc1ccc(F)cc1)C(=O)O; PEG6 = NCCOCCOCCOCCOCCOCCOCCC(=O)O; hArg = N=C(N)NCCCC[C@H](N)C(=O)O; 4Pal = N[C@@H](Cc1ccncc1)C(=O)O; Cha = N[C@@H](CC1CCCCC1)C(=O)O; Cit = NC(=O)NCCC[C@H](N)C(=O)O; Ile(3ξ) = CCC(C)[C@H](N)C(=O)O; aThr = C[C@H](O)[C@H](N)C(=O)O; Thr(3ξ) = CC(O)[C@H](N)C(=O)O; Cba = N[C@@H](CC1CCC1)C(=O)O; Carboxymethyl = O=C(O)C*; Orn = NCCC[C@H](N)C(=O)O; Aun = NCCCCCCCCCCC(=O)O; Dab = NCC[C@H](N)C(=O)O; Dap = NC[C@H](N)C(=O)O; AEEA = NCCOCCOCC(=O)O; Ac3c = NC1(C(=O)O)CC1

The target of this assay is T1, PD-1/PD-L1 interaction (PE-labeled human PD-L1-Ig binding to Jurkat cell line over-expressing human PD-1) (Homo sapiens, UniProt Q15116).
T1 construct: expressed in transfected cells; host or cells: Jurkat
T1 sequence (Q15116 25-288): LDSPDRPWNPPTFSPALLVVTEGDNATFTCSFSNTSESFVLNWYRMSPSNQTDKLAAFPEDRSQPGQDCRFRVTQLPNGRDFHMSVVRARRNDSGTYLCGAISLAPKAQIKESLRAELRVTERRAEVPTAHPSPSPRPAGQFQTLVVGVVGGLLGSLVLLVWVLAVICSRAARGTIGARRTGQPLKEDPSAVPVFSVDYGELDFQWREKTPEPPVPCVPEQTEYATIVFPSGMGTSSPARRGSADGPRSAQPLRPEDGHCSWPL
Briefly: Jurkat-PD-1 Cell Binding High-Content Screening Assay (CBA). It counts as cell-based. To be noted: Jurkat cell line over-expressing human PD-1; PE-labeled PD-L1-Ig 20 nM final; read-out: Jurkat hPD1-PDL1 IC50. The method in brief:
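Binding of fluorescent PD-L1-Ig (phycoerythrin on Ig tag, 20 nM final, 1 h) measured by high-content imaging of fixed, Hoechst-counterstained Jurkat-hPD-1 cells. Compound added 2 h at 37° C beforehand, in DMEM with 10% fetal calf serum.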
For the compound `Cc1cccc(C[C@@H]2NC(=O)[C@H](CC(=O)O)NC(=O)[C@H](Cc3ccc(OCC(=O)O)cc3)NC(=O)[C@H](Cc3ccncc3)NC(=O)CSC[C@@H](C(=O)N[C@@H](CCN)C(=O)NCCCCCCCCCCC(=O)O)NC(=O)[C@H](CCCN)NC(=O)[C@H](C(C)C)NC(=O)[C@H](CC3CCCCC3)NC(=O)[C@H](CCN)NC(=O)[C@@H](CC(C)C)NC(=O)[C@H](CCCN)NC(=O)[C@H](Cc3ccc(O)cc3)NC(=O)[C@H](Cc3ccc(-c4ccccc4)cc3)NC(=O)[C@H](C(C)C)NC2=O)c1` [Compound 2706] ({CH2CO}-[4Pal]Y(Carboxymethyl)D[Phe(3-Me)]V[Bip]Y[Orn][dL][Dab][Cha]V[Orn]C[Dab][Aun]-OH; thioether N-14), the concentration for half-maximal inhibition (IC50) amounted to 0.0184 µM.

As for `Cc1cccc(C[C@@H]2NC(=O)[C@H](CC(=O)O)NC(=O)[C@H](Cc3ccc(OCC(=O)O)cc3)NC(=O)[C@H](CN)NC(=O)CSC[C@@H](C(=O)N[C@@H](CCN)C(=O)NCCOCCOCC(=O)NCCCCCCCCCCC(=O)O)NC(=O)[C@H](CCCN)NC(=O)[C@H](C(C)C)NC(=O)[C@H](CC3CCCCC3)NC(=O)[C@H](CCN)NC(=O)[C@@H](CC(C)C)NC(=O)[C@H](CCCN)NC(=O)[C@H](Cc3ccc(O)cc3)NC(=O)[C@H](Cc3ccc(-c4ccccc4)cc3)NC(=O)[C@H](Cc3ccc(C(=O)O)cc3)NC2=O)c1` [Compound 2060] ({CH2CO}-[Dap]Y(Carboxymethyl)D[Phe(3-Me)][Phe(4-COOH)][Bip]Y[Orn][dL][Dab][Cha]V[Orn]C[Dab][AEEA][Aun]-OH; thioether N-14), the IC50 is 0.0043 µM. The value for `Cc1cccc(C[C@@H]2NC(=O)[C@H](CC(=O)O)NC(=O)[C@H](Cc3ccc(OCC(=O)O)cc3)NC(=O)[C@H](CCCNC(=N)N)NC(=O)CSC[C@@H](C(=O)N[C@H](CC(N)=O)C(=O)NCCCCCCCCCCC(=O)O)NC(=O)[C@H](C(C)O)NC(=O)[C@H](C(C)O)NC(=O)[C@H](CC3CCCCC3)NC(=O)[C@H](CCN)NC(=O)[C@@H](CC(C)C)NC(=O)[C@H](CCCN)NC(=O)[C@H](CCCNC(N)=O)NC(=O)[C@H](Cc3ccc(-c4ccccc4)cc3)NC(=O)[C@H](C(C)C)NC2=O)c1` (stereo partly drawn) [Compound 3522] ({CH2CO}-RY(Carboxymethyl)D[Phe(3-Me)]V[Bip][Cit][Orn][dL][Dab][Cha][Thr(3ξ)][Thr(3ξ)]C[dN][Aun]-OH; thioether N-14) was 0.0408 µM; that for `CC(C)C[C@H]1NC(=O)[C@H](CCCN)NC(=O)[C@H](Cc2ccc(OCC(=O)O)cc2)NC(=O)[C@H](Cc2ccc(-c3ccccc3)cc2)NC(=O)[C@H](Cc2ccc(C(=O)O)cc2)NC(=O)[C@H](Cc2cccc(C(F)(F)F)c2)NC(=O)[C@H](CC(=O)O)NC(=O)[C@H](Cc2ccc(OCC(=O)O)cc2)NC(=O)[C@H]([C@H](C)O)NC(=O)CSC[C@@H](C(=O)N[C@@H](CCN)C(=O)NCCOCCOCCOCCOCCOCCOCCC(=O)NCCCCCCCCCCCCCCC(=O)O)NC(=O)[C@H](CCC(=O)O)NC(=O)[C@H](C(C)C)NC(=O)[C@H](CC2CCCCC2)NC(=O)[C@H](CCN)NC1=O` [Compound 3912] ({CH2CO}-[aThr]Y(Carboxymethyl)D[Phe(3-CF3)][Phe(4-COOH)][Bip]Y(Carboxymethyl)[Orn][dL][Dab][Cha]VEC[Dab][PEG6]-{NH(CH2)14COOH}; thioether N-14) was 0.252 µM; that for `Cc1cccc(C[C@@H]2NC(=O)[C@H](CC(=O)O)NC(=O)[C@H](Cc3ccc(OCC(=O)O)cc3)NC(=O)[C@H](CCCNC(=N)N)NC(=O)CSC[C@@H](C(=O)NC3(C(=O)NCCCCCCCCCCC(=O)O)CC3)NC(=O)[C@H]([C@@H](C)O)NC(=O)[C@H](C(C)C)NC(=O)[C@H](CC3CCC3)NC(=O)[C@H](CCN)NC(=O)[C@@H](CC(C)C)NC(=O)[C@H](CCCN)NC(=O)[C@H](Cc3ccc(OCC(=O)O)cc3)NC(=O)[C@H](Cc3ccc(-c4ccccc4)cc3)NC(=O)[C@H](Cc3ccc(OCC(=O)O)cc3)NC2=O)c1` [Compound 2164] ({CH2CO}-RY(Carboxymethyl)D[Phe(3-Me)]Y(Carboxymethyl)[Bip]Y(Carboxymethyl)[Orn][dL][Dab][Cba]VTC[Ac3c][Aun]-OH; thioether N-14) was 0.0333 µM. The figure for `CC(C)C[C@H]1NC(=O)[C@H](CCCN)NC(=O)[C@H](Cc2ccc(O)cc2)NC(=O)[C@H](Cc2ccc(-c3ccccc3)cc2)NC(=O)[C@H](Cc2ccc(OCC(=O)O)cc2)NC(=O)[C@H](Cc2ccc(F)cc2)NC(=O)[C@H](CC(=O)O)NC(=O)[C@H](Cc2ccc(OCC(=O)O)cc2)NC(=O)[C@H](CN)NC(=O)CSC[C@@H](C(=O)N[C@@H](CCN)C(=O)NCCOCCOCC(=O)NCCCCCCCCCCC(=O)O)NC(=O)[C@H](CCCN)NC(=O)[C@H](C(C)C)NC(=O)[C@H](CC2CCCCC2)NC(=O)[C@H](CCN)NC1=O` [Compound 1298] ({CH2CO}-[Dap]Y(Carboxymethyl)D[Phe(4-F)]Y(Carboxymethyl)[Bip]Y[Orn][dL][Dab][Cha]V[Orn]C[Dab][AEEA][Aun]-OH; thioether N-14) is 0.0288 µM; for `CCC(C)[C@@H]1NC(=O)[C@H](CC2CCCCC2)NC(=O)[C@H](CCN)NC(=O)[C@@H](CC(C)C)NC(=O)[C@H](CCCN)NC(=O)[C@H](C(C)CC)NC(=O)[C@H](Cc2ccc(-c3ccccc3)cc2)NC(=O)[C@H](C(C)CC)NC(=O)[C@H](Cc2c[nH]c3ccccc23)NC(=O)[C@H](CC(=O)O)NC(=O)[C@H](Cc2ccc(OCC(=O)O)cc2)NC(=O)[C@H](C(C)O)NC(=O)CSC[C@@H](C(=O)N[C@@H](CN)C(=O)NCCOCCOCC(=O)N[C@@H](CCCN)C(=O)NCCCCCCCCCCC(=O)O)NC(=O)[C@H](CO)NC1=O` (stereo partly drawn) [Compound 3121] ({CH2CO}-[Thr(3ξ)]Y(Carboxymethyl)DW[Ile(3ξ)][Bip][Ile(3ξ)][Orn][dL][Dab][Cha][Ile(3ξ)]SC[Dap][AEEA][Orn][Aun]-OH; thioether N-14) it is 0.0104 µM; for `CC(C)C[C@H]1NC(=O)[C@H](CCCN)NC(=O)[C@H](C(C)C)NC(=O)[C@H](Cc2ccc(-c3ccccc3)cc2)NC(=O)[C@H](C(C)C)NC(=O)[C@H](Cc2c[nH]c3ccccc23)NC(=O)[C@H](CC(=O)O)NC(=O)[C@H](Cc2ccc(OCC(=O)O)cc2)NC(=O)[C@H](CCCCNC(=N)N)NC(=O)CSC[C@@H](C(=O)N[C@@H](CCCN)C(=O)NCCOCCOCC(=O)N[C@@H](CCCN)C(=O)NCCCCCCCCCCC(=O)O)NC(=O)[C@H](CO)NC(=O)[C@H](C(C)C)NC(=O)[C@H](CC2CCCCC2)NC(=O)[C@H](CC(N)=O)NC1=O` [Compound 3178] ({CH2CO}-[hArg]Y(Carboxymethyl)DWV[Bip]V[Orn][dL]N[Cha]VSC[Orn][AEEA][Orn][Aun]-OH; thioether N-14) it is 0.0148 µM.

Regarding `Cc1cccc(C[C@@H]2NC(=O)[C@H](CC(=O)O)NC(=O)[C@H](Cc3ccc(OCC(=O)O)cc3)NC(=O)[C@H](CN)NC(=O)CSC[C@@H](C(=O)N[C@H](C)CC(=O)NCCCCCCCCCCC(=O)O)NC(=O)[C@H]([C@@H](C)O)NC(=O)[C@H](C(C)C)NC(=O)[C@H](CC3CCCCC3)NC(=O)[C@H](CCN)NC(=O)[C@@H](CC(C)C)NC(=O)[C@H](CCCN)NC(=O)[C@H](CCCNC(N)=O)NC(=O)[C@H](Cc3ccc(-c4ccccc4)cc3)NC(=O)[C@H](C(C)C)NC2=O)c1` [Compound 2620], the IC50 was 0.0281 µM.
